Literature values in patent US20080176787A1, “Parathyroid hormone analogues and methods of use” (priority 2005, published 2008).
Where two headings read alike, the source gives them in different places. Marks after values point to notes of the source that are not given here.

Columns and labels:
[1] = system: OVX adult Cynomolgus monkeys; conditions: Humerus Mid-Diaphysis, F, 18 months, cited from earlier work
[2] = system: OVX adult Cynomolgus monkeys; conditions: Femoral Neck, F, 18 months, cited from earlier work
monkey = conditions: cited from earlier work
[3] = system: postmenopausal women (with prior vertebral fractures); conditions: cited from earlier work; for hypercalcemia seen at least once, % of subjects: average of 19 months (placebo 2%)
rats = conditions: rat, in vivo; cited from earlier work
patients = conditions: cited from earlier work
[4] = teriparatide 0, 0.5, 2, 10 μg/kg, 12 mth monkey
[5] = 20 μg (6 months), inferred from graphed data

Structure (SMILES): CC[C@H](C)[C@H](NC(=O)[C@H](CCC(=O)O)NC(=O)[C@H](CO)NC(=O)[C@@H](NC(=O)[C@@H](N)CO)C(C)C)C(=O)N[C@@H](CCC(N)=O)C(=O)N[C@@H](CC(C)C)C(=O)N[C@@H](CCSC)C(=O)N[C@@H](Cc1cnc[nH]1)C(=O)N[C@@H](CC(N)=O)C(=O)N[C@@H](CC(C)C)C(=O)NCC(=O)N[C@@H](CCCCN)C(=O)N[C@@H](Cc1cnc[nH]1)C(=O)N[C@@H](CC(C)C)C(=O)N[C@@H](CC(N)=O)C(=O)N[C@@H](CO)C(=O)N[C@@H](CCSC)C(=O)N[C@@H](CCC(=O)O)C(=O)N[C@@H](CCCN=C(N)N)C(=O)N[C@H](C(=O)N[C@@H](CCC(=O)O)C(=O)N[C@@H](Cc1c[nH]c2ccccc12)C(=O)N[C@@H](CC(C)C)C(=O)N[C@@H](CCCN=C(N)N)C(=O)N[C@@H](CCCCN)C(=O)N[C@@H](CCCCN)C(=O)N[C@@H](CC(C)C)C(=O)N[C@@H](CCC(N)=O)C(=O)N[C@@H](CC(=O)O)C(=O)N[C@H](C(=O)N[C@@H](Cc1cnc[nH]1)C(=O)N[C@@H](CC(N)=O)C(=O)N[C@@H](Cc1ccccc1)C(=O)O)C(C)C)C(C)C [Forteo, hPTH-(1-34)]
- % Cortical Porosity ([1]; 1 μg/kg/day): ~15.0* %
- % Cortical Porosity ([1]; 5 μg/kg/day): ~25* %
- % Cortical Porosity ([2]; 1 μg/kg/day): 8.5 ± 0.8 %
- % Cortical Porosity ([2]; 5 μg/kg/day): 8.9 ± 0.6 %
- nephropathy (monkey; pre-clinical toxicity): induces a mineralizing nephropathy in monkeys and possibly rats
- Free Ca (monkey; [4]): Free Ca increased
- serum neutralising antibodies (monkey; [4]): detected all doses
- tubulo-interstitial nephritis (monkey; [4]): nephritis all doses;
- NoAEL (monkey; teriparatide, 12 mth monkey): <0.5 µg/kg
- Mean % Change In Femoral Neck (BMD) ([3]; 20 μg for at least 12 Months): 1.54%
- Mean % Change In Total Hip (BMD) ([3]; 20 μg for at least 12 Months): 1.70%
- Mean % Change In Trochanter (BMD) ([3]; 20 μg for at least 12 Months): 2.68%
- hypercalcemia seen at least once, % of subjects ([3]; 20 μg/day): 11%
- hypercalcemia seen at least once, % of subjects ([3]; 40 μg/day): 28%
- BMD in distal and mid-shaft radius compared to placebo ([3]; Neer et al.): decrease in BMD
- osteosarcoma in rats (warning label) (rats): increase in incidence of osteosarcoma in rats
- CTx (patients; [5]): 3300^2 pM/L
- P1NP (patients; [5]): 71^2 μg/L
- TH-BMD (%) (patients; [5]): 0.6^2%
- FN-BMD (%) (patients; 20 μg (6 months)): 1.02%
- LS-BMD (%) (patients; 20 μg (6 months)): 5.2%
- Mean [Ca] (patients; 20 μg (6 months)): 0.075 mmol/L
- Pts > 2.75 mmol/L (patients; in vivo): 5
- Pts > 2.75 mmol/L (sustained) (patients; in vivo): 2
